Laboratory results: US12458651B2, “Compounds and their uses for alleviating menopause-associated symptoms” (ESTETRA SRL, priority 2018, dated 2025)
Read-outs that look alike come from different tables or passages of the source.

Assays:
post-menopausal women [1] = experiment: GSM symptom: dysuria; assay type: in vivo
Experimental: (§1) Change from baseline to week 12 in the following GSM symptoms (VVA subject self-assessment) were recorded: • a) Vaginal dryness (sensation of dryness or burning in the vagina; none=0 mild=1, moderate=2 or severe=3):
• c) Dysuria (sensation of pain or difficulty in urinating; none=0, mild=1, moderate=2 or severe=3): […]

post-menopausal women [2] = experiment: GSM symptom (VVA self-assessment): vaginal dryness; assay type: in vivo
Experimental: Change from baseline to week 12 in the following GSM symptoms (VVA subject self-assessment) were recorded: • a) Vaginal dryness (sensation of dryness or burning in the vagina; none=0 mild=1, moderate=2 or severe=3): […]

[3] = Triglycerides level at 15 mg and 20 mg daily doses; assay type: in vivo; conditions: 20 mg daily dose in place of 15 mg daily dose
Experimental: In order to better assess the potential for increasing the daily dose beyond the minimum effective dose of 15 mg daily, a number of parameters were followed in a study where estetrol was administered at the increased dose of 20 mg per day.
1. Triglycerides Level (mmol/L)

post-menopausal women [4] = experiment: Adverse events (AEs, TEAEs) in the dose-finding study; assay type: in vivo
Excerpt: This is confirmed by the following statistical analysis. Using a Poisson regression model with a random effect for the patient and treatment group as a covariate to model the count of TEAEs in the different treatment groups, it can be shown that there is no statistical difference between the treatment groups (p value of 0.099). Second, a chi-square test was used to assess if the prevalence of patients reporting TEAEs in each treatment group was similar. No statistical difference was found between the treatment groups (p value of 0.575).

postmenopausal women [5] = conditions: cited from earlier work
post-menopausal women [6] = experiment: GSM symptom: vaginal pain associated with sexual activity; assay type: in vivo
Experimental: as §1
• d) Vaginal pain associated with sexual activity (sensation of pain with sexual intercourse none=0, mild=1, moderate=2 or severe=3): […]

[7] = system: C-terminal telopeptide (CTX-1); experiment: C-terminal telopeptide (CTX-1), marker of bone resorption; assay type: in vivo
postmenopausal women [8] = conditions: 2 mg estetrol per day for 28 days; cited from earlier work
post-menopausal women [9] = experiment: GSM symptom: vaginal and/or vulvar irritation/itching; assay type: in vivo
Experimental: as §1
• b) Vaginal and/or vulvar irritation/itching (sensation of abnormal irritation or sensitive condition in the vagina; none=0, mild=1, moderate=2 or severe=3): […]

post-menopausal women [10] = experiment: Dose-finding study: hot flush weekly weighted score; assay type: in vivo
Experimental: Further, the terms “Hot Flush Weekly Weighted Score”, as used herein, corresponds to a score taking into account frequency and severity which is calculated by using the severity score (as calculated above): [(1×No. of mild VMS)+(2×No. of moderate VMS)+(3×No. of severe VMS)] during a 7 day period.
Such a weighted score was for example used by Notelovitz et al. (“Initial 17β-Estradiol Dose for Treating Vasomotor Symptoms”; Obstetrics and Gynaecology, Vol. 95(5), May 2000, p. 726-731). This score was used to generate the data included in Example 1 further below, under section A. c) “Hot Flush Weekly Weighted Score”.

C[C@]12CC[C@@H]3c4ccc(O)cc4CC[C@H]3[C@@H]1[C@@H](O)[C@@H](O)[C@@H]2O [Estetrol, 1,3,5 (10)-estratrien-3,15alpha,16alpha,17beta-tetrol]
Dysuria score (none=0 to severe=3), mean ± SD (post-menopausal women [1]; E4 2.5 mg, Baseline): 0.2 ± 0.56
Dysuria score (none=0 to severe=3), mean ± SD (post-menopausal women [1]; E4 2.5 mg, Week 12): 0 ± 0.19
Dysuria score (none=0 to severe=3), mean ± SD (post-menopausal women [1]; E4 5 mg, Baseline): 0.2 ± 0.56
Dysuria score (none=0 to severe=3), mean ± SD (post-menopausal women [1]; E4 5 mg, Week 12): 0 ± 0.20
Dysuria score (none=0 to severe=3), mean ± SD (post-menopausal women [1]; E4 10 mg, Baseline): 0.2 ± 0.58
Dysuria score (none=0 to severe=3), mean ± SD (post-menopausal women [1]; E4 10 mg, Week 12): 0.1 ± 0.23
Dysuria score (none=0 to severe=3), mean ± SD (post-menopausal women [1]; E4 15 mg, Baseline): 0.3 ± 0.58
Dysuria score (none=0 to severe=3), mean ± SD (post-menopausal women [1]; E4 15 mg, Week 12): 0.3 ± 0.61
Vaginal dryness score (none=0 to severe=3), mean ± SD (post-menopausal women [2]; E4 2.5 mg, Baseline): 1 ± 0.90
Vaginal dryness score (none=0 to severe=3), mean ± SD (post-menopausal women [2]; E4 2.5 mg, Week 12): 0.5 ± 0.77
Vaginal dryness score (none=0 to severe=3), mean ± SD (post-menopausal women [2]; E4 5 mg, Baseline): 1.3 ± 0.94
Vaginal dryness score (none=0 to severe=3), mean ± SD (post-menopausal women [2]; E4 5 mg, Week 12): 0.7 ± 0.86
Vaginal dryness score (none=0 to severe=3), mean ± SD (post-menopausal women [2]; E4 10 mg, Baseline): 1 ± 0.93
Vaginal dryness score (none=0 to severe=3), mean ± SD (post-menopausal women [2]; E4 10 mg, Week 12): 0.5 ± 0.75
Vaginal dryness score (none=0 to severe=3), mean ± SD (post-menopausal women [2]; E4 15 mg, Baseline): 1.1 ± 1.04
Vaginal dryness score (none=0 to severe=3), mean ± SD (post-menopausal women [2]; E4 15 mg, Week 12): 0.5 ± 0.68
Lipid parameters (triglycerides, cholesterol, HDL, LDL) and glucose level [3]: do not behave significantly differently
Percentage of patients with TEAE leading to Study Discontinuation (post-menopausal women [4]; 2.5 mg group): 1.9%
Percentage of patients with severe TEAE (post-menopausal women [4]; 2.5 mg group): 7.7%
Percentage of patients with TEAE leading to Study Discontinuation (post-menopausal women [4]; 5 mg group): 6.4%
Percentage of patients with severe TEAE (post-menopausal women [4]; 5 mg group): 10.6%
Average AEs per patient (patients who had AEs) (post-menopausal women [4]; 10 mg group): 3.2
Percentage of patients with TEAE leading to Study Discontinuation (post-menopausal women [4]; 10 mg group): 5.6%
Percentage of patients with severe TEAE (post-menopausal women [4]; 10 mg group): 7.4%
Average AEs per patient (patients who had AEs) (post-menopausal women [4]; 15 mg group): 2.6
Percentage of patients with TEAE leading to Study Discontinuation (post-menopausal women [4]; 15 mg group): 4.1%
Percentage of patients with severe TEAE (post-menopausal women [4]; 15 mg group): 6.1%
Endometrial thickness (postmenopausal women [5]; 2 mg estetrol per day): stable
Endometrial thickness (postmenopausal women [5]; 10 mg estetrol per day): increasing
Vaginal pain associated with sexual activity score (none=0 to severe=3), mean ± SD (post-menopausal women [6]; E4 2.5 mg, Baseline): 0.6 ± 0.77
Vaginal pain associated with sexual activity score (none=0 to severe=3), mean ± SD (post-menopausal women [6]; E4 2.5 mg, Week 12): 0.3 ± 0.73
Vaginal pain associated with sexual activity score (none=0 to severe=3), mean ± SD (post-menopausal women [6]; E4 5 mg, Baseline): 1 ± 1.07
Vaginal pain associated with sexual activity score (none=0 to severe=3), mean ± SD (post-menopausal women [6]; E4 5 mg, Week 12): 0.5 ± 0.78
Vaginal pain associated with sexual activity score (none=0 to severe=3), mean ± SD (post-menopausal women [6]; E4 10 mg, Baseline): 0.6 ± 0.77
Vaginal pain associated with sexual activity score (none=0 to severe=3), mean ± SD (post-menopausal women [6]; E4 10 mg, Week 12): 0.2 ± 0.36
Vaginal pain associated with sexual activity score (none=0 to severe=3), mean ± SD (post-menopausal women [6]; E4 15 mg, Baseline): 0.7 ± 0.90
Vaginal pain associated with sexual activity score (none=0 to severe=3), mean ± SD (post-menopausal women [6]; E4 15 mg, Week 12): 0.3 ± 0.54
Bone resorption (CTX-1), decrease compared with 15 mg daily dose ([7]; 20 mg daily dose, after 28 days of treatment): more pronounced
C-Terminal Telopeptide (CTX-1), Baseline, Mean ([7]; E4 15 mg daily): 416.0 ng/L
C-Terminal Telopeptide (CTX-1), Baseline, Median ([7]; E4 15 mg daily): 339.0 ng/L
C-Terminal Telopeptide (CTX-1), End Of Treatment Actual Change from Baseline, Mean ([7]; E4 15 mg daily, after 12 weeks): -95.0 ng/L
C-Terminal Telopeptide (CTX-1), End Of Treatment Actual Change from Baseline, Median ([7]; E4 15 mg daily, after 12 weeks): -142.5 ng/L
C-Terminal Telopeptide (CTX-1), End Of Treatment Actual Value, Mean ([7]; E4 15 mg daily, after 12 weeks): 320.9 ng/L
C-Terminal Telopeptide (CTX-1), End Of Treatment Actual Value, Median ([7]; E4 15 mg daily, after 12 weeks): 197.5 ng/L
C-Terminal Telopeptide (CTX-1), Baseline, Mean ([7]; E4 20 mg daily): 422.50 ng/L
C-Terminal Telopeptide (CTX-1), Baseline, Median ([7]; E4 20 mg daily): 416.5 ng/L
C-Terminal Telopeptide (CTX-1), End Of Treatment Actual Change from Baseline, Mean ([7]; E4 20 mg daily, after 28 days): -147.60 ng/L
C-Terminal Telopeptide (CTX-1), End Of Treatment Actual Change from Baseline, Median ([7]; E4 20 mg daily, after 28 days): -138.0 ng/L
C-Terminal Telopeptide (CTX-1), End Of Treatment Actual Value, Mean ([7]; E4 20 mg daily, after 28 days): 274.9 ng/L
C-Terminal Telopeptide (CTX-1), End Of Treatment Actual Value, Median ([7]; E4 20 mg daily, after 28 days): 267.50 ng/L
Mean number of hot flushes and sweating (postmenopausal women [8]): decrease
Vaginal and/or vulvar irritation/itching score (none=0 to severe=3), mean ± SD (post-menopausal women [9]; E4 2.5 mg, Baseline): 0.7 ± 0.96
Vaginal and/or vulvar irritation/itching score (none=0 to severe=3), mean ± SD (post-menopausal women [9]; E4 2.5 mg, Week 12): 0.3 ± 0.60
Vaginal and/or vulvar irritation/itching score (none=0 to severe=3), mean ± SD (post-menopausal women [9]; E4 5 mg, Baseline): 0.6 ± 0.90
Vaginal and/or vulvar irritation/itching score (none=0 to severe=3), mean ± SD (post-menopausal women [9]; E4 5 mg, Week 12): 0.4 ± 0.65
Vaginal and/or vulvar irritation/itching score (none=0 to severe=3), mean ± SD (post-menopausal women [9]; E4 10 mg, Baseline): 0.7 ± 0.87
Vaginal and/or vulvar irritation/itching score (none=0 to severe=3), mean ± SD (post-menopausal women [9]; E4 10 mg, Week 12): 0.3 ± 0.64
Vaginal and/or vulvar irritation/itching score (none=0 to severe=3), mean ± SD (post-menopausal women [9]; E4 15 mg, Baseline): 0.5 ± 0.85
Vaginal and/or vulvar irritation/itching score (none=0 to severe=3), mean ± SD (post-menopausal women [9]; E4 15 mg, Week 12): 0.4 ± 0.70
Relative change (% from baseline) in hot flush weekly weighted score, mean (post-menopausal women [10]; 10 mg per day, week 0): 0%
Relative change (% from baseline) in hot flush weekly weighted score, mean (section B analysis) (post-menopausal women [10]; 10 mg per day, week 0): 0%
Relative change (% from baseline) in hot flush weekly weighted score, mean (section B analysis) (post-menopausal women [10]; 10 mg per day, week 1): −20%
Relative change (% from baseline) in hot flush weekly weighted score, mean (section B analysis) (post-menopausal women [10]; 10 mg per day, week 2): −34%
Relative change (% from baseline) in hot flush weekly weighted score, mean (section B analysis) (post-menopausal women [10]; 10 mg per day, week 3): −46%
Relative change (% from baseline) in hot flush weekly weighted score, mean (section B analysis) (post-menopausal women [10]; 10 mg per day, week 4): −53%
Relative change (% from baseline) in hot flush weekly weighted score, mean (section B analysis) (post-menopausal women [10]; 10 mg per day, week 5): −57%
Relative change (% from baseline) in hot flush weekly weighted score, mean (section B analysis) (post-menopausal women [10]; 10 mg per day, week 6): −62%
Relative change (% from baseline) in hot flush weekly weighted score, mean (section B analysis) (post-menopausal women [10]; 10 mg per day, week 7): −64%
Relative change (% from baseline) in hot flush weekly weighted score, mean (section B analysis) (post-menopausal women [10]; 10 mg per day, week 8): −66%
Relative change (% from baseline) in hot flush weekly weighted score, mean (section B analysis) (post-menopausal women [10]; 10 mg per day, week 9): −66%
Relative change (% from baseline) in hot flush weekly weighted score, mean (section B analysis) (post-menopausal women [10]; 10 mg per day, week 10): −68%
Relative change (% from baseline) in hot flush weekly weighted score, mean (section B analysis) (post-menopausal women [10]; 10 mg per day, week 11): −68%
Relative change (% from baseline) in hot flush weekly weighted score, mean (section B analysis) (post-menopausal women [10]; 10 mg per day, week 12): −69%
Relative change (% from baseline) in hot flush weekly weighted score, mean (post-menopausal women [10]; 15 mg per day, week 0): 0%
Relative change (% from baseline) in hot flush weekly weighted score, mean (section B analysis) (post-menopausal women [10]; 15 mg per day, week 0): 0%
Relative change (% from baseline) in hot flush weekly weighted score, mean (section B analysis) (post-menopausal women [10]; 15 mg per day, week 1): −22%
Relative change (% from baseline) in hot flush weekly weighted score, mean (section B analysis) (post-menopausal women [10]; 15 mg per day, week 2): −45%
Relative change (% from baseline) in hot flush weekly weighted score, mean (section B analysis) (post-menopausal women [10]; 15 mg per day, week 3): −56%
Relative change (% from baseline) in hot flush weekly weighted score, mean (section B analysis) (post-menopausal women [10]; 15 mg per day, week 4): −66%
Relative change (% from baseline) in hot flush weekly weighted score, mean (section B analysis) (post-menopausal women [10]; 15 mg per day, week 5): −70%
Relative change (% from baseline) in hot flush weekly weighted score, mean (section B analysis) (post-menopausal women [10]; 15 mg per day, week 6): −72%
Relative change (% from baseline) in hot flush weekly weighted score, mean (section B analysis) (post-menopausal women [10]; 15 mg per day, week 7): −75%
Relative change (% from baseline) in hot flush weekly weighted score, mean (section B analysis) (post-menopausal women [10]; 15 mg per day, week 8): −76%
Relative change (% from baseline) in hot flush weekly weighted score, mean (section B analysis) (post-menopausal women [10]; 15 mg per day, week 9): −78%
Relative change (% from baseline) in hot flush weekly weighted score, mean (section B analysis) (post-menopausal women [10]; 15 mg per day, week 10): −77%
Relative change (% from baseline) in hot flush weekly weighted score, mean (section B analysis) (post-menopausal women [10]; 15 mg per day, week 11): −79%
Relative change (% from baseline) in hot flush weekly weighted score, mean (section B analysis) (post-menopausal women [10]; 15 mg per day, week 12): −81%
